Reference: patent US20110046131A1, “PURINES AS PKC-THETA INHIBITORS” (N.V. Organon and Pharmacopeia, LLC, priority 2006, published 2011)

Legend:
PKC alpha = biological target: T1, PKC alpha (Homo sapiens, UniProt P17252); assay: Ki Pan Vera (PV) potency for PKC alpha; assay type: biochemical; settings: Ki Pan Vera (PV) of PKC alpha
T1 construct: purchased Pan Vera
Method: [The source words this procedure for another target and reports this target under the same test.] (§1) For Ki Pan Vera (PV) of PKCθ, entries identified with “A” had values below 100 nM; entries identified with “B” had values below 1 μM; and entries identified with “C” had values below 10 μM.

PKCθ = biological target: T2, PKCθ (Homo sapiens, UniProt Q04759); assay: Ki Pan Vera (PV) potency for PKCθ; assay type: biochemical; settings: Ki Pan Vera (PV) of PKCθ
T2 construct: purchased Pan Vera
Method: as §1

SGK kinase = biological target: T3, SGK kinase (Homo sapiens, UniProt O00141); assay: IC50 for SGK kinase (selectivity); assay type: biochemical; settings: for IC50: read-out: IC50-SGK1
T3 sequence (O00141 1-431): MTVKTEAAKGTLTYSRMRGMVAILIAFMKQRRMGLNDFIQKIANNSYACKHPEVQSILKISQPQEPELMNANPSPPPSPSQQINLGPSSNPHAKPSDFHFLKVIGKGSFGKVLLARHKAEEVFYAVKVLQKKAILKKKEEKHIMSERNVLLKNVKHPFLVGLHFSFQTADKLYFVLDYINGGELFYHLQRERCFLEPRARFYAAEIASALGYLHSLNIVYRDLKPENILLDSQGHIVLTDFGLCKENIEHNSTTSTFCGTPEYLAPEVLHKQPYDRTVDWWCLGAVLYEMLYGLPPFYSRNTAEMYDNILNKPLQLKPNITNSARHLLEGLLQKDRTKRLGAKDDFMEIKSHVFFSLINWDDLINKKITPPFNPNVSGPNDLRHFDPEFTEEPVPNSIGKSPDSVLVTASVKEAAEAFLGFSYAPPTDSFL
Method: Entries identified with “1” had values above 250 nM; entries identified with “2” had values above 1 μM; entries identified with “3” had values above 10 μM.

[1] = tested on: anti-CD3 induced interleukin-2 (IL-2) production; assay: anti-CD3 induced interleukin-2 (IL-2) production in mice; assay type: in vivo
Method: The compounds of the invention were also tested in vivo.

PKC delta = biological target: T4, PKC delta (Homo sapiens, UniProt Q05655); assay: Ki Pan Vera (PV) potency for PKC delta; assay type: biochemical; settings: Ki Pan Vera (PV) of PKC delta
T4 construct: purchased Pan Vera
Method: [The source words this procedure for another target and reports this target under the same test.] as §1

T4 sequence (Q05655 whole entry): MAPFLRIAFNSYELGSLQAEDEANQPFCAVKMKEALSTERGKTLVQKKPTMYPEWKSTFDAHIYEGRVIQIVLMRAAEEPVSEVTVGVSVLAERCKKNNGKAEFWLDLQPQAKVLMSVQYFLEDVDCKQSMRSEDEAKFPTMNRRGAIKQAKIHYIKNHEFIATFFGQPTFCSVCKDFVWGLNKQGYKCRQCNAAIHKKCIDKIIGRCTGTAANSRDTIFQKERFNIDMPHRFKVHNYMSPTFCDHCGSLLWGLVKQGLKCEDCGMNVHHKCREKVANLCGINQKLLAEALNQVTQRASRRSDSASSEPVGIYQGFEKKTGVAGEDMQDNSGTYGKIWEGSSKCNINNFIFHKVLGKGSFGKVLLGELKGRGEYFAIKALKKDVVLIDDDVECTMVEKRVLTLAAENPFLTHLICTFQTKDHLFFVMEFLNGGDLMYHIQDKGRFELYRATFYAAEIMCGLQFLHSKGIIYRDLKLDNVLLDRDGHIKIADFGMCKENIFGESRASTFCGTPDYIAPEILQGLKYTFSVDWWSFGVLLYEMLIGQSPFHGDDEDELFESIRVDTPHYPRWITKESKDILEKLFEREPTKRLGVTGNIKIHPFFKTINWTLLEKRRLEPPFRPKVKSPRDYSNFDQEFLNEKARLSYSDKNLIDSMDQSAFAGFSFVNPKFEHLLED
T2 sequence (Q04759 whole entry): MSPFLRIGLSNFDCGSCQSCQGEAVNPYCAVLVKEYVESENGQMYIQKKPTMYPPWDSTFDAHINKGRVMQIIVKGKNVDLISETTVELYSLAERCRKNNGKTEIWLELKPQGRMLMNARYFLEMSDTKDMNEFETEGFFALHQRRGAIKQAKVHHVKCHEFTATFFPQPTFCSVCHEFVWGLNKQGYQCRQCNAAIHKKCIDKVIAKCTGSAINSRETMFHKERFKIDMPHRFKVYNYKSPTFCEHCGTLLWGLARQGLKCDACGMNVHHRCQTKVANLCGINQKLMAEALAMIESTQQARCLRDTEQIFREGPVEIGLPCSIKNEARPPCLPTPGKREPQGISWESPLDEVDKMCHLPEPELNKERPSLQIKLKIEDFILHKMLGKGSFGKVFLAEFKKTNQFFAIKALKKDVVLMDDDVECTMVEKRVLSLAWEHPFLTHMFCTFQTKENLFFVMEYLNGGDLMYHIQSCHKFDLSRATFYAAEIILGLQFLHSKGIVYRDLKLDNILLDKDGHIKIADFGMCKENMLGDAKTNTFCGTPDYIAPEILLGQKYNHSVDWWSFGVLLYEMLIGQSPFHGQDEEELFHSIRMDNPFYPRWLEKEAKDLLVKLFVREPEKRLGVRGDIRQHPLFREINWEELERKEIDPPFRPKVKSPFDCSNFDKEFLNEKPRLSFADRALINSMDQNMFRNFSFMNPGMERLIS

SMILES	Ki (PKC alpha) [nM]	Ki (PKCθ) [nM]	IC50-SGK1 (SGK kinase)	% inhibition of IL-2 production ([1]; subcutaneous dose 30 mg/kg) [%]	Ki (PKC delta) [nM]	IC50 (SGK kinase) [nM]	% inhibition of IL-2 production ([1]; subcutaneous dose 1 mg/kg) [%]
Fc1ccc(CNc2ncc3nc(-c4c(Cl)cccc4Cl)n(C[C@@H]4CCCNC4)c3n2)cc1Cl [Compound 100]	> 1000	< 100	Inactive	38	> 250		
Fc1ccc(CNc2ncc3nc(-c4c(Cl)cccc4Cl)n(C[C@@H]4CCCNC4)c3n2)cc1F [Compound 101]	> 1000	< 100	Inactive	58	> 250		
Fc1ccc(CNc2ncc3nc(-c4c(F)cccc4Cl)n(C[C@@H]4CCCNC4)c3n2)cc1F [Compound 113, N-(3,4-difluorobenzyl)-8-(2-chloro-6-fluorophenyl)-9-((R)-piperidin-3-ylmethyl)-9H-purin-2-amine]	> 1000	< 100		38	> 250		
Clc1ccc(CNc2ncc3nc(-c4c(Cl)cccc4Cl)n(CC4CCNC4)c3n2)cc1Cl (stereo not drawn) [Compound 206]	> 10000	< 10000			> 1000	> 10000	
Clc1cccc(Cl)c1-c1nc2cnc(NCc3ccccc3)nc2n1CCC1CCNCC1 [Compound 141]	> 10000	< 1000			> 10000	> 1000	
Fc1ccc(CNc2ncc3nc(-c4c(Cl)cccc4Cl)n(C[C@H]4CCNC4)c3n2)cc1Cl [Compound 120]	> 1000	< 1000	Inactive	35	> 1000		
Fc1ccc(CNc2ncc3nc(-c4c(Cl)cccc4Cl)n(CC4CCNC4)c3n2)cc1F (stereo not drawn) [Compound 142]	> 1000	< 1000			> 1000	> 10000	
Fc1ccccc1CNc1ncc2nc(-c3c(F)cccc3Cl)n(C[C@H]3CCNC3)c2n1 [Compound 211]	> 1000	< 1000			> 1000	> 1000	
Fc1ccccc1CNc1ncc2nc(-c3ccccc3Cl)n(CCC3CCNCC3)c2n1 [Compound 240]	> 10000	< 1000	Inactive		> 1000		
Fc1ccc(F)c(CNc2ncc3nc(-c4c(Cl)cccc4Cl)n(CC4CCNC4)c3n2)c1 (stereo not drawn) [Compound 161]	> 250	< 100			> 250	> 10000	
Fc1ccccc1CNc1ncc2nc(-c3c(F)cccc3Cl)n(CC3CCCNC3)c2n1 (stereo not drawn) [Compound 160]	> 1000	< 1000	Inactive		> 1000		
Fc1cccc(Cl)c1-c1nc2cnc(NCc3cccc(Cl)c3)nc2n1C[C@H]1CCNC1 [Compound 216]	> 1000	< 1000	Inactive		> 1000		
C[C@H](Nc1ncc2nc(-c3c(Cl)cccc3Cl)n(CC3CCNC3)c2n1)c1ccccc1F (stereo partly drawn) [Compound 166]	> 1000	< 1000			> 1000	> 10000	
Fc1ccccc1CNc1ncc2nc(-c3c(Cl)cccc3Cl)n(CCC3CCCNC3)c2n1 (stereo not drawn) [Compound 164]	> 1000	< 1000	Inactive		> 1000		
Fc1ccccc1CNc1ncc2nc(-c3c(Cl)cccc3Cl)n(C[C@H]3CCNC3)c2n1 [Compound 153]	> 1000	< 1000			> 1000	> 1000	
NCCN1CCC(n2c(-c3c(Cl)cccc3Cl)nc3cnc(NCc4ccccc4F)nc32)CC1 [Compound 143]	> 1000	< 1000	Inactive		> 1000		
C=CC[C@@H]1/C=C(\C)C[C@H](C)C[C@H](OC)[C@H]2O[C@@](O)(C(=O)C(=O)N3CCCC[C@H]3C(=O)O[C@H](/C(C)=C/[C@@H]3CC[C@@H](O)[C@H](OC)C3)[C@H](C)[C@@H](O)CC1=O)[C@H](C)C[C@@H]2OC [FK506, reference compound]							87
Fc1ccc(Cl)cc1CNc1ncc2c(n1)C(C[C@H]1CCNC1)C(c1c(Cl)cccc1Cl)=N2 (stereo partly drawn) [Compound 131]	> 1000	< 1000	Inactive		> 1000		
Fc1ccc(CNc2ncc3nc(-c4c(Cl)cccc4Cl)n(CC4CCNC4)c3n2)c(F)c1 (stereo not drawn) [Compound 172]	> 1000	< 1000	Inactive		> 1000		
Clc1cccc(Cl)c1-c1nc2cnc(NCc3ccccc3)nc2n1C[C@H]1CCNC1 [Compound 133]	> 1000	< 1000	Inactive		> 1000		
Fc1ccc(F)c(CNc2ncc3nc(-c4ccccc4Cl)n(C[C@@H]4CCCNC4)c3n2)c1 [Compound 167]	> 10000	< 1000	Inactive		> 1000		
Fc1ccc(CNc2ncc3nc(-c4c(F)cccc4Cl)n(C[C@@H]4CCCNC4)c3n2)c(F)c1 [Compound 144]	> 1000	< 1000	Inactive		> 1000		
Fc1ccc(Cl)cc1CNc1ncc2nc(-c3c(Cl)cccc3Cl)n(C[C@@H]3CCCNC3)c2n1 [Compound 106]	> 10000	< 1000	Inactive		> 1000		
Fc1cccc(CNc2ncc3nc(-c4c(F)cccc4Cl)n(C[C@H]4CCNC4)c3n2)c1 [Compound 205]	> 1000	< 1000	Inactive		> 1000		
